This is an account of results in patent US5413991A (Ajinomoto Co., Inc., priority 1991, dated 1995).

Data set [1] concerns the target chitinase from Trichoderma sp. (Chitinase T-1). Description: Assay for chitinase inhibitory activity, chitinase from Trichoderma sp. It counts as biochemical. To be noted: McIlvaine buffer pH 5.2, substrate 4MBTC. The method, then: The chitinase from Trichoderma sp. was provided for use in the assay described in procedure (ii) below by diluting commercially available Chitinase T-1 (manufactured by Asahi Industry Co., Ltd.) with MclIvanine buffer (obtained by adding 0.2M aqueous disodium hydrogen phosphate to 0.1M aqueous citric acid and adjusting the pH to 5.2) to a concentration of 50 μg/ml.
(§1) In a 20 ml vial bottle, 50 μl of the chitinase solution from Candida albicans prepared as described above,s 50 μl of 100 μg/ml aqueous 4-methylumbelliferyl β-D-N,N',N"-triacetyl-chitotrioside (hereinafterabbreviated as 4MBTC, SIGMA Co.), 75 μl of 50 mM bis-Tris buffer (pH 6.5) and 25 μl of 0.1N acetic acid were added and mixed. The reaction was carried out at 37° C. for 30 minutes. As a blank, the reaction was carried out in an identical manner, substituting 50 mM bis-Tris buffer (pH 6.5) for the enzyme solution. After the reaction, sufficient 0.5M glycine-sodium hydroxide buffer (pH 10.4) was added to make the total volume 5 ml. Then, the fluorescent intensity was determined with a fluorophotometer (manufactured by Hitachi Ltd., MPF-4). The excited wavelength was 350 nm, and the fluorescent wavelength was 400 nm. Chitinase activity was determined using the difference in the fluorescent intensity between the read-out data from the sample containing the enzyme and the blank read-out data.
(§2) In determining the inhibitory activity of AJI9463A, AJI9463B, AJI9463C, and the partially hydrolyzed disaccharides thereof, each compound was dissolved in 0.1N acetic acid, and 25 μl of the compound solution was substituted for the 25 μl of 0.1N acetic acid in the reaction system described above. Further, in determining the inhibitory activity against the chitinases of baker's yeast and Trichoderma sp., the assay was performed by changing the buffer in the reaction system described above from 50 mM bis-Tris buffer (pH 6.5) to 0.1M citrate buffer (pH 3.0) and MclLvanine buffer (pH 5.2), respectively.

Data set [2] has as its target T1, chitinase from baker's yeast (S cerevisiae) (Saccharomyces cerevisiae, UniProt P29029).
T1 construct: was shaken at 30° C. for 2 hours at 120 spm to extract the enzyme; host or cells: commercial baker's yeast, digitonin extract
T1 sequence (P29029 21-562): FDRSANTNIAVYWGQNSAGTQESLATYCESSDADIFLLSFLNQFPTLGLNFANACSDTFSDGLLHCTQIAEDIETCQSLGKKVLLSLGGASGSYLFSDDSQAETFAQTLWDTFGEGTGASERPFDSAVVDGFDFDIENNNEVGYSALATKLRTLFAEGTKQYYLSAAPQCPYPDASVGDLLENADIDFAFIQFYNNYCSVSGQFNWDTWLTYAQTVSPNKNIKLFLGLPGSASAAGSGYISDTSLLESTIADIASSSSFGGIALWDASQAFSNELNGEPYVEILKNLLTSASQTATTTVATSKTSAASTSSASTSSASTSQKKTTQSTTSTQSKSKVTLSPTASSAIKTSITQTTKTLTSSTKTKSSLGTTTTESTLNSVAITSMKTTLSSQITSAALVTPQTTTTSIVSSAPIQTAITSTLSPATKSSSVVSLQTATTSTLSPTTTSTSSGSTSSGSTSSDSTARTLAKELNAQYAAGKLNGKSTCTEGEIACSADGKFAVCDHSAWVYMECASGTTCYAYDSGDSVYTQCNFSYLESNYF
In words: Assay for chitinase inhibitory activity, chitinase from baker's yeast. The data set is classed as biochemical. The settings on record: 0.1M citrate buffer pH 3.0, substrate 4MBTC. As for the experimental part:
The chitinase from baker's yeast (S cerevisiae) was prepared by the following method. Firstly, 400 g of baker's yeast (manufactured by Kanegafuchi Chemical Industry Co., Ltd.) was suspended in buffer for enzyme extraction (0.1% digitonin: manufactured by Wako Pure Chemical Industry Co., Ltd.), 0.1% β-mercaptoethanol and 2 liters of 25 mM MES (manufactured by Nakarai Chemical Co., Ltd.), and was shaken at 30° C. for 2 hours at 120 spm to extract the enzyme. The extract was centrifuged at 12,000 g for 10 minutes and the supernatant was recovered. The supernatant was concentrated to about one-fifth of the volume by ultrafiltration (UP-20). After 800 ml of sodium citrate buffer (obtained by adding 0.15M aqueous sodium citrate to 0.15M aqueous citric acid, and adjusting the pH to 3.0) was added to the concentrate, the precipitates were removed by centrifugation (0° C., 12,000 g, 10 minutes). The supernatant was again concentrated by ultrafiltration (UP-20) to about 80 ml. The resulting concentrate was used as the chitinase from baker's yeast in the assay described in procedure (ii) below.
as §1, §2

Data set [3] concerns chitinase from Candida albicans. In words: Assay for chitinase inhibitory activity, chitinase from Candida albicans (4MBTC fluorescence). The data set is classed as biochemical, Candida albicans ATCC 10231. The settings on record: for Chitinase Inhibitory Activity IC50, C. albicans: bis-Tris buffer pH 6.5, 37° C., 30 minutes, substrate 4MBTC; for Inhibitory activity against chitinase derived from Candida albicans, in words: comparison in words. As for the experimental part: The chitinase from Candida albicans (C. albicans) was prepared by the following method. Firstly, a Sabouraud medium (pH 5.6) composed of 4 g of glucose, 1 g of polypeptone and 100 ml of water was prepared and placed in an Erlenmeyer flask of 500 ml volume. After sterilization at 120° C. for 20 minutes, one platinum loop of slant culture cells of C. albicans ATCC 10231 was inoculated into the medium, and then shake cultured at 37° C. for 2 days to obtain a primary seed mother liquor.
In a second procedure, 1 liter of Sabouraud medium having the same composition as above was prepared. Separately, 100 ml of the medium was added to each of ten 500 ml Erlenmeyer flasks, then the flasks and their contents were sterilized at 120° C. for 20 minutes. Thereafter, 2 ml of the primary seed mother liquor described above was added to each flask. The flask was shaken at 37° C. for 2 days to obtain a secondary seed mother liquor.
In a third procedure, 50 liters of Sabouraud medium having the same composition as described above was prepared and added to a culture tank of 100 liter volume. The tank and its contents were sterilized at 120° C. for 30 minutes. In the tank, 1 liter of the secondary seed mother liquor described above was added. Shake culturing was then conducted at 37° C. for 15 hours. At this stage, the stirring velocity was 140 rpm and the aerial rate was 10 l/min. The resulting culture broth was centrifuged by a sharpless centrifuging machine to recover the cells. The wet weight of the thus obtained cells was 250 g.
The cells were suspended in 800 ml of a buffer for cell homogenization (50 mM bis-Tris, 0.25M saccharose, 1 mM disodium ethylenediaminetetraacetate, pH 6.5). The suspension was twice passed through a Dyno-mill disintegrator (beads: MK-2GX, 0.25-0.5 mm) to disrupt the cells, and the supernatant was recovered. The supernatant was centrifuged at 9000 g for 30 minutes, then further super-centrifuged at 152,000 g for an hour. The supernatant thereof was recovered, and was concentrated to about one-fifth of the volume by ultrafiltration (Toyo Ultrafilter UP-20), having an excluding limiting molecular weight of 20,000. The concentrate was used as the crude chitinase solution from Candida albicans in the assay described in procedure (ii) below.
as §1, §2

Data set [4] deals with silkworm-derived chitinase. To be noted: background statement; cited from earlier work.
Data set [5] has as its system fungi-derived chitinase. The settings on record: background statement; cited from earlier work.
For data set [6], the system named is endo-type chitinase of insects. To be noted: background statement; cited from earlier work.
In data set [7] the test system is human leukemia cells K562. Description: Cytotoxicity, human leukemia cells K562. The data set is classed as cell-based. To be noted: 1 mg/ml, 37° C., 4 days, microscopic observation. As for the experimental part: Six separate samples of human leukemia cells K562, inoculated in RPMI 1640 medium supplemented with 10% calf fetal serum (1×10^5 counts/ml) were prepared, and AJI9463A, AJI9463B, AJI9463C and each of the partially hydrolyzed disaccharides thereof were respectively added thereto, resulting in a concentration of 1 mg/ml. Stationary culture was conducted at 37° C. for 4 days. The human leukemia cell K562 culture was observed microscopically.

The test system of data set [8] is Candida albicans (ATCC 10231). Description: Effects on growth of Candida albicans. It counts as cell-based. To be noted: 50 μg/ml, Sabouraud dextrose medium, 37° C., 6 and 9 hours after inoculation, microscopic observation. As for the experimental part:
Samples of Candida albicans (ATCC 10231) were precultured in Sabouraud dextrose medium. Each of seven large test tubes containing 5 ml of Sabouraud dextrose medium were charged, respectively, with 50 μg/ml of AJI9463A, AJI9463B, AJI9463C, and the partially hydrolyzed disaccharides thereof and medium containing no active inhibitory component. The preculture was then inoculated into the media in the test tubes. The test tubes were capped with a cotton stopper, and incubated at 37° C. at 120 spm. The change in the subsequent culture with respect to time was observed. Observations were made microscopically, sampling the medium at the time when the culture started, and 6 and 9 hours thereafter.

Data set [9] relates to mouse ascites breast cancer cells FM3A. Description: Cytotoxicity, mouse ascites breast cancer cells FM3A. To be noted: 1 mg/ml, 37° C., 4 days, microscopic observation. The data set is classed as cell-based. As for the experimental part:
Six separate samples of mouse ascites breast cancer cells FM3A, inoculated in Dulbeccol's modified MEM medium supplemented with 10% calf fetal serum (1×10^5 counts/ml) were prepared, and AJI9463A, AJI9463B, AJI9463C and each of the partially hydrolyzed disaccharides thereof were respectively added thereto, resulting in a concentration of 1 mg/ml. Stationary culture was conducted at 37° C. for 4 days. The cultured mouse ascites breast cancer cells FM3A were observed microscopically.

On to `CNC1=NC2C(O)C(O[C@@H]3O[C@H](CO)[C@@H](O)[C@H](O)[C@H]3NC(C)=O)C(CO)C2O1` (some centres unmarked), for which the “Chitinase Inhibitory Activity IC50, Trichoderma sp.” value in data set [1] is more than 50.0 µg/mL. Also, in [2], the IC50 (in general, the point on the concentration scale where inhibition reaches its midpoint) is more than 493 µM. In addition, the “Chitinase Inhibitory Activity IC50, C. albicans” value in data set [3] stood at 1.0 µg/mL.

Consider `CC(=O)N[C@H]1[C@H](O[C@H]2[C@@H](O)[C@@H](NC(C)=O)[C@H](O[C@H]3[C@H](O)[C@H]4N=C(N(C)C)O[C@H]4[C@@H]3CO)O[C@@H]2CO)O[C@H](CO)[C@@H](O)[C@H]1O` [Allosamidin, allosamidin], for which the “Inhibition of silkworm-derived chitinase” value in data set [4] is recorded as “inhibitors”. Moreover, in [1], the “Chitinase Inhibitory Activity IC50, Trichoderma sp.” value was determined as 0.8 µg/mL. Moreover, in data set [5], the “Inhibitory activity against fungi-derived chitinase” value is “weak inhibitory activity”. Besides, the “Chitinase Inhibitory Activity IC50, C. albicans” value in data set [3] was determined as 6.2 µg/mL. In addition, the “Inhibition of endo-type chitinase of insects” value in data set [6] is on record as “strongly inhibit”.

`CNC1=NC2C(O)C(O[C@@H]3O[C@H](CO)[C@@H](O[C@@H]4O[C@H](COC)[C@@H](O)[C@@H](O)[C@H]4NC(C)=O)[C@H](O)[C@H]3NC(C)=O)C(CO)C2O1` (some centres unmarked) [AJI9463B]: the “Growth inhibition of human leukemia cells K562 (cytotoxicity)” value in [7] is “No growth inhibition was noted at all”. In addition, in data set [1], the “Chitinase Inhibitory Activity IC50, Trichoderma sp.” value came out at 1.6 µg/mL. This compound also gave an IC50 in data set [2] of 0.803 µM. The “Fungal growth of Candida albicans” value in data set [8] is “somewhat inhibited”. Besides, the “Growth inhibition of mouse ascites breast cancer cells FM3A (cytotoxicity)” value in [9] is “No growth inhibition was noted at all”. In data set [3], the “Chitinase Inhibitory Activity IC50, C. albicans” value came to 0.8 µg/mL; the “Inhibitory activity against chitinase derived from Candida albicans, in words” value (“Inhibitory activity … in words” for short) is “superior to that of allosamidin and methylallosamidin”.

As for `CNC1=NC2C(O)C(O[C@@H]3O[C@H](CO)[C@@H](O[C@@H]4O[C@H](COC)[C@@H](O)[C@@H](O)[C@H]4NC(C)=O)[C@@H](O)[C@H]3NC(C)=O)C(CO)C2O1` (some centres unmarked) [AJI9463A], the “Growth inhibition of human leukemia cells K562 (cytotoxicity)” value in data set [7] is recorded as “No growth inhibition was noted at all”. The “Chitinase Inhibitory Activity IC50, Trichoderma sp.” value in data set [1] stood at 1.3 µg/mL. Further, the IC50 in data set [2] is 0.642 µM. Further, the “Fungal growth of Candida albicans” value in data set [8] was “somewhat inhibited”. Also, in data set [9], the “Growth inhibition of mouse ascites breast cancer cells FM3A (cytotoxicity)” value is given as “No growth inhibition was noted at all”. Moreover, in [3], the “Chitinase Inhibitory Activity IC50, C. albicans” value amounted to 0.6 µg/mL and the “Inhibitory activity … in words” value is reported as “most potent inhibitory activity of any known compound”.

On to `CC(=O)N[C@H]1[C@H](OC2C(O)C3N=C(N(C)C)OC3C2CO)O[C@H](CO)[C@@H](O)[C@@H]1O` (some centres unmarked), for which, in [1], the “Chitinase Inhibitory Activity IC50, Trichoderma sp.” value was more than 50.0 µg/mL. Further, the half-maximal inhibitory concentration (IC50) in data set [2] was more than 477 µM. Besides, in data set [3], the “Chitinase Inhibitory Activity IC50, C. albicans” value was determined as 1.3 µg/mL.

For `CNC1=NC2C(O)C(O[C@@H]3O[C@H](CO)[C@@H](O)[C@@H](O)[C@H]3NC(C)=O)C(CO)C2O1` (some centres unmarked), the “Chitinase Inhibitory Activity IC50, Trichoderma sp.” value in [1] was more than 50.0 µg/mL. Also, the IC50 in data set [2] was more than 493 µM. Also, the “Chitinase Inhibitory Activity IC50, C. albicans” value in data set [3] stood at 0.9 µg/mL.

For the compound `COC[C@H]1O[C@@H](O[C@H]2[C@H](O)[C@@H](NC(C)=O)[C@H](OC3C(O)C4N=C(N(C)C)OC4C3CO)O[C@@H]2CO)[C@H](NC(C)=O)[C@H](O)[C@@H]1O` (some centres unmarked) [AJI9463C], the “Growth inhibition of human leukemia cells K562 (cytotoxicity)” value in data set [7] is listed as “No growth inhibition was noted at all”. Moreover, in data set [1], the “Chitinase Inhibitory Activity IC50, Trichoderma sp.” value stood at 0.8 µg/mL. The compound also gave a concentration for half-maximal inhibition (IC50) in [2] of 49.2 µM. For the same compound, the “Fungal growth of Candida albicans” value in [8] is “somewhat inhibited”. The “Growth inhibition of mouse ascites breast cancer cells FM3A (cytotoxicity)” value in [9] is reported as “No growth inhibition was noted at all”. Also, in data set [3], the “Chitinase Inhibitory Activity IC50, C. albicans” value was determined as 3.4 µg/mL; the “Inhibitory activity … in words” value was “superior to that of allosamidin and methylallosamidin”.
